Reference: US20180042249A1, “METHOD FOR REDUCTION IN MICROBIAL ACTIVITY IN POULTRY PROCESSING” (Zeco, Inc., priority 2014, published 2018)

Test system: bacterial count on poultry carcasses (chicken samples)
Test: Antimicrobial efficacy of elevated concentration and temperature application of PAA to poultry carcasses (average bacterial count reduction)
Assay type: cell-based
Procedure: As summarized in Table 1 below, ten chicken samples were treated with an elevated peroxyacetic acid concentration at an elevated temperature for a specified period of time using either an equilibrium peroxyacetic acid intervention solution or a pH modified peroxyacetic acid intervention solution. […] The treated poultry carcasses were measured for the average bacterial count reduction as a result of the elevated peroxyacetic acid concentration and elevated temperature.

peroxyacetic acid [PAA]
Average % Reduction (bacterial count) (PAA 500 ppm, 72 °F, 10 seconds exposure, pH 7.7 (pH modified PAA solution)): 97.34% | Average % Reduction (bacterial count) (PAA 500 ppm, 72 °F, 10 seconds exposure, pH ~3 (equilibrium PAA solution)): 70.57% | Average % Reduction (bacterial count) (PAA 500 ppm, 125 °F, 7 seconds exposure, pH 7.7 (pH modified PAA solution)): 93.68% | Average % Reduction (bacterial count) (PAA 500 ppm, 125 °F, 7 seconds exposure, pH ~3 (equilibrium PAA solution)): 77.26% | Average % Reduction (bacterial count) (PAA 600 ppm, 125 °F, 7 seconds exposure, pH 7.7 (pH modified PAA solution)): 89.34% | Average % Reduction (bacterial count) (PAA 600 ppm, 125 °F, 7 seconds exposure, pH ~3 (equilibrium PAA solution)): 61.94% | Average % Reduction (bacterial count) (PAA 700 ppm, 125 °F, 7 seconds exposure, pH 7.7 (pH modified PAA solution)): 97.87% | Average % Reduction (bacterial count) (PAA 700 ppm, 125 °F, 7 seconds exposure, pH ~3 (equilibrium PAA solution)): 92.27% | bacterial count reduction (elevated PAA concentration and temperature, period of time of at least 7 seconds (summary of Table 1)): ≥ 60%
